Consider nine compounds from patent publication US8415351B2 (priority 2007, dated 2013).

The subject of assay [1] is genotype 1b-Con1 subgenomic replicon cell line. In words: microbe, parasite or virus in culture. The class given is cell-based, HCV. As to conditions: Hepatitis C virus, read-out: EC50 1b.
The target in assay [2] is T1, HCV polymerase 1A (Δ21 NS5B, H77) (Hepatitis C virus genotype 1a, UniProt P27958).
T1 construct: 20 to 50 nM Δ21 NS5B
In words: biochemical. Conditions: IC50 1a. Summed up: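 Incorporation of 1 μM ^3H-UTP, with 20 μM each of CTP and ATP on 5 nM template RNA, ran 2–4 h at room temperature. Spermine-precipitated product was filtered and scintillation-counted. IC50 came from tight-binding non-linear regression of cpm against inhibitor concentration.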

In assay [3] the target is T2, HCV polymerase 1B (Δ21 NS5B, BK) (Hepatitis C virus genotype 1b, UniProt P26663).
T2 construct: 20 to 50 nM Δ21 NS5B
Description: biochemical. The procedure, abridged:
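Δ21 NS5B (genotype 1b, BK […]) preincubated 15 min RT with inhibitor, 2 mM MnCl2, pH 7.4, 60–125 μM GTP; started with 20 μM CTP/ATP, 1 μM 3H-UTP, 5 nM template RNA, run 2–4 h RT. Spermine-precipitated RNA filter-captured, scintillation counted; IC50 from tight-binding (Morrison) fit.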

The subject of assay [4] is genotype 1a-H77 subgenomic replicon cell line. In words: microbe, parasite or virus in culture. The class given is cell-based, HCV. As to conditions: Hepatitis C virus, read-out: EC50 1a.

T2 sequence (P26663 2420-2989, stated change not applied): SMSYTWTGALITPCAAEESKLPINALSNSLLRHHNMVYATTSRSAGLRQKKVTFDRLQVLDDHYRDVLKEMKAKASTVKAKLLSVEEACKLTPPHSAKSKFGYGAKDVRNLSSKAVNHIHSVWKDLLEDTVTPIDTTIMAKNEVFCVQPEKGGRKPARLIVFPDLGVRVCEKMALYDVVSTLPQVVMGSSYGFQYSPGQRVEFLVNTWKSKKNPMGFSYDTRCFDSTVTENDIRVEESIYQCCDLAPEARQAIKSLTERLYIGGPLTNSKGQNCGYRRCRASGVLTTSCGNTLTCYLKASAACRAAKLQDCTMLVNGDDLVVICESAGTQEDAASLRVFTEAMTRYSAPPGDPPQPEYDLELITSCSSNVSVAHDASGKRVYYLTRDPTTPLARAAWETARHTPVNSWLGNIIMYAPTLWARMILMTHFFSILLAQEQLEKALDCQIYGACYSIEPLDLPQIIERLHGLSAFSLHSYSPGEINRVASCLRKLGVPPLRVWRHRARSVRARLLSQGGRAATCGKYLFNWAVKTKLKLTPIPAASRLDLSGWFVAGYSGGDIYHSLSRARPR
T1 sequence (P27958 2421-2990, stated change not applied): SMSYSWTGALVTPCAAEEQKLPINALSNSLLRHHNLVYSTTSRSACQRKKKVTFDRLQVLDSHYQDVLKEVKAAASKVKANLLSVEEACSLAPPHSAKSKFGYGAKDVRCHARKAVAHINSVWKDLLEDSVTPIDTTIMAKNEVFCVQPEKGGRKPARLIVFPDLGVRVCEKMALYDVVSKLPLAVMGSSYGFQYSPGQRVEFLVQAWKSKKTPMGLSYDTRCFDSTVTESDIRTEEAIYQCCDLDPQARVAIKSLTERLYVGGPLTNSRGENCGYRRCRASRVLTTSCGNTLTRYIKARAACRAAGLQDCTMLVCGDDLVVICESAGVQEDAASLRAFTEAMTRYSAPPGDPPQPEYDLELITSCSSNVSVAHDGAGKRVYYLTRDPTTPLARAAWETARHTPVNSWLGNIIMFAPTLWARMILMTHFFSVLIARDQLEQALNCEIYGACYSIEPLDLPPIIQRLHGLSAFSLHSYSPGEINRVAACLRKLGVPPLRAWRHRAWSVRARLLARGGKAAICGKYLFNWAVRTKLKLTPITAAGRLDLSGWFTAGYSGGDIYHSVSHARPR

Consider `CC(C)(C)c1cc(N2CCC(=O)NC2=O)cc(C(=O)Nc2ccccc2S(C)(=O)=O)c1O` [IA-L3-1.20, 3-tert-butyl-5-(2,4-dioxotetrahydropyrimidin-1(2H)-yl)-2-hydroxy-N-(2-(methylsulfonyl)phenyl)benzamide], for which the 50% effective concentration (EC50) in assay [1] and in assay [4] was more than 1000 nM in each case. Further, the IC50 in assay [2] was more than 1000 nM; in assay [3], 10 to 100 nM.
As to `COc1c(C#Cc2ccccc2)cc(N2CCC(=O)NC2=O)cc1C(C)(C)C` [IA-L2-1.4, 1-(3-tert-butyl-4-methoxy-5-(phenylethynyl)phenyl)dihydropyrimidine-2,4(1H,3H)-dione], the EC50 in assay [1] and in assay [4] was 100 to 1000 nM throughout. Further, the 50% inhibitory concentration (IC50) in assay [2] and in assay [3] was 100 to 1000 nM in each case.
Take `COc1c(-c2ccc3c(CNS(C)(=O)=O)csc3c2)cc(-n2ccc(=O)[nH]c2=O)cc1C(C)(C)C` [IB-L0-2.11, N-((6-(3-tert-butyl-5-(2,4-dioxo-3,4-dihydropyrimidin-1(2H)-yl)-2-methoxyphenyl)benzo[b]thiophen-3-yl)methyl)methanesulfonamide]: the concentration giving a half-maximal response (EC50) is less than 10 nM in assay [1] and 10 to 100 nM in assay [4]. The 50% inhibitory concentration (IC50) in assay [2] and in assay [3] was less than 10 nM throughout.
`CC(C)(C)c1cc(N2CCC(=O)NC2=O)cc(NC(=O)c2ccc(CS(C)(=O)=O)cc2)c1O` [IA-L4-1.4, N-(3-tert-butyl-5-(2,4-dioxotetrahydropyrimidin-1(2H)-yl)-2-hydroxyphenyl)-4-(methylsulfonylmethyl)benzamide]: the EC50 in assay [1] and in assay [4] was more than 1000 nM in each case. Besides, the IC50 in assay [2] and in assay [3] was more than 1000 nM in each case.
Take `COc1c(-c2ccc3c(CNS(C)(=O)=O)coc3c2)cc(-n2ccc(=O)[nH]c2=O)cc1C(C)(C)C` [IB-L0-2.18, N-((6-(3-tert-butyl-5-(2,4-dioxo-3,4-dihydropyrimidin-1(2H)-yl)-2-methoxyphenyl)benzofuran-3-yl)methyl)methanesulfonamide]: the concentration for a half-maximal effect (EC50) fell in the range of 10 to 100 nM in assay [1] and 100 to 1000 nM in assay [4]. Further, the 50% inhibitory concentration (IC50) is less than 10 nM in assay [2] and 10 to 100 nM in assay [3].
As to `COc1c(C(=O)Nc2ccc(NS(=O)(=O)c3c(C)noc3C)cc2)cc(N2CCC(=O)NC2=O)cc1C(C)(C)C` [IA-L3-1.59, 3-tert-butyl-N-[4-(3,5-dimethyl-isoxazole-4-sulfonylamino)-phenyl]-5-(2,4-dioxo-tetrahydro-pyrimidin-1-yl)-2-methoxy-benzamide], the EC50 in assay [1] and in assay [4] was more than 1000 nM each time. In addition, the IC50 was in the range of 100 to 1000 nM in assay [2] and 10 to 100 nM in assay [3].
In the case of `COc1c(C#Cc2ccc(NS(C)(=O)=O)cc2NC(C)=O)cc(-n2ccc(=O)[nH]c2=O)cc1C(C)(C)C` [IB-L2-1.12, N-(2-((3-tert-butyl-5-(2,4-dioxo-3,4-dihydropyrimidin-1(2H)-yl)-2-methoxyphenyl)ethynyl)-5-(methylsulfonamido)phenyl)acetamide], the figures for the concentration for a half-maximal effect (EC50) in assay [1] and in assay [4] were 10 to 100 nM and 100 to 1000 nM, respectively. The 50% inhibitory concentration (IC50) in assay [2] and in assay [3] was 10 to 100 nM throughout.
Turning to `COc1c(C#Cc2ccc(NS(C)(=O)=O)c(F)c2Cl)cc(N2CCC(=O)NC2=O)cc1C(C)(C)C` [IA-L2-1.21, N-(4-((3-tert-butyl-5-(2,4-dioxotetrahydropyrimidin-1(2H)-yl)-2-methoxyphenyl)ethynyl)-3-chloro-2-fluorophenyl)methanesulfonamide], the half-maximal effective concentration (EC50) is less than 10 nM in assay [1] and 10 to 100 nM in assay [4]. Also, the concentration for half-maximal inhibition (IC50) in assay [2] was less than 10 nM; in assay [3], 10 to 100 nM.
Regarding `COc1c(C(=O)Nc2ccc(NS(C)(=O)=O)cc2C)cc(N2CCC(=O)NC2=O)cc1C(C)(C)C` [IA-L3-1.83, 3-tert-butyl-5-(2,4-dioxotetrahydropyrimidin-1(2H)-yl)-2-methoxy-N-(2-methyl-4-(methylsulfonamido)phenyl)benzamide], the 50% effective concentration (EC50) in assay [1] and in assay [4] was 100 to 1000 nM each time. Besides, the results for the 50% inhibitory concentration (IC50) in assay [2] and in assay [3] were 10 to 100 nM and 100 to 1000 nM, respectively.

In general, EC50 refers to the concentration giving half of the maximal effect. As a reminder, the IC50 is the concentration at which inhibition is half-maximal. A higher IC50 goes with a need for much substance.
